From US10952940B2, “Reagents and methods for mineralization of tooth enamel” (UNIVERSITY OF WASHINGTON, priority 2016, dated 2021) come the findings set out here.

Assay [1] is described as follows: Solution mineralization approach, color measurements with Chroma Meter. Also noted: species or system human. The conditions noted are these: peptide 10 min, calcium/phosphate ions 2 hours, 37° C.; 25 rounds. The source says: The root site of an extracted human tooth was removed and the crown portion of the tooth was sectioned vertically into half. A thin layer of enamel was removed from one half of the sectioned tooth such that the dentin layer is exposed without completely removing the enamel on the tooth. This allowed imaging of the enamel surfaces after the mineralization experiment without the problem of surface reflection, and provides a more parallel surface from which to compare the whiteness results. The sectioned tooth was fixed onto a glass slide with epoxy. Initial color measurements of each of the four sides of the sectioned tooth were obtained using a Minolta Chroma Meter CR-200 (Konica Minolta, Tokyo, Japan), according to manufacturer instructions, using a white background and a black background. The sectioned tooth was incubated in a mineralization polypeptide solution for 10 minutes at 37° C. and then in a solution with calcium ions and phosphate ions for 2 hours at 37° C. Color measurements of each of the four sides of the sample were taken as described initially. The sectioned was rinsed with deionized water and the remineralization process (incubation in polypeptide solution, incubation in solution of ion sources, and rinsing with deionized water) was repeated for a total of 25 rounds. The mineralization polypeptide was SYENSHSQAINVDRT (shADP5; SEQ ID NO:16).

A short description of assay [2]: In vitro re-mineralization of tea-stained rat tooth using the peptide solution. The note with it: tea-stained rat tooth quarter; peptide 10 min 37° C., then CaCl2/KH2PO4 16 hours. The procedure:
Rat teeth (molars) were obtained from sacrificed rats (for example, Sprague Dawley rats, age 3 weeks or older) from animal facility, collected, and stored in 100% alcohol. Prior to the re-mineralization experiments the teeth were stored in 1% bleach for 24 hours. […] The teeth were then dried in an incubator in air at 37° C. for 3-6 hours to produce dry surface. The root site and section the crown were removed vertically using a diamond blade. Pictures were taken with camera attached to optical microscope. Exposed dentine sites in the one half of the sectioned tooth were etched with 35% phosphoric acid (Ultraetch™) for 60 seconds (to facilitate the stain intake). The etching gel was removed by rinsing the sample with distilled water for 3 minutes. The staining solution was prepared by boiling 2 g of tea in 100 ml of deionized water for 5 minutes, and then cooled down to room temperature and filtered. The tooth sample was soaked in the staining solution and incubated at 37° C. at 150 rpm for 24 hours. The tooth was removed from the staining solution and sonicated for 30 seconds in deionized water (sonic bath) to remove the excess amount of tea particles attached to tooth extrinsically. The one half of the sectioned tooth was cut vertically into half again to form two quarter sections of the tooth. A second set of pictures were taken with camera attached to optical microscope. […]

Assay [3] can be described thus: In vitro re-mineralization of tea-stained human tooth using the peptide solution, optical images and line profile analysis. On the procedure: A caries-free human tooth was sterilized in 1% bleach solution for 24 hours then removed and vigorously rinsed with deionized water. The root site was removed and the crown sectioned vertically using a diamond blade. Pictures were taken with a camera attached to an optical microscope.
The exposed dentine sites were etched with 35% phosphoric acid (Ultraetch™) for 60 seconds (to facilitate the stain intake). The etching gel was removed by rinsing the sample with distilled water for 3 minutes. The staining solution was prepared by boiling 2 g of tea in 100 ml of deionized water for 5 minutes, which was then cooled down to room temperature and filtered. The tooth was soaked in the staining solution and incubated at 37° C. at 150 rpm for 24 hours. The tooth was then removed from the staining solution and sonicated for 30 seconds in deionized water (sonic bath) to remove the excess amount of tea particles attached to tooth extrinsically. The sectioned tooth was cut vertically in half again to form two quarter sections of the tooth. FIGS. 2(a) to 2(g) show various sections of the tooth after the staining. […] Figures (b), (c) and (d) show different views of the left quarter of the tooth that was sectioned from the tooth. […]

Assay [4] is described as follows: Structural characterization of remineralized layer by TEM. The note with it: TEM of fragments shaved off the surface; listed as group 6. Also noted: species or system human. The procedure: After remineralization steps were completed, TEM samples were collected by carefully shaving off the top most surface of the remineralized layer from the artificially created white spot lesion using a clean razor blade. The shaved particles were suspended in 100% ethanol, and the suspension was drop-casted onto a carbon coated TEM grid, which was then vacuum dried before TEM characterization. TEM bright field imaging (BF) imaging and selected areas diffraction were carried out using an FEI Tecnai (FEI, Hillboro, Oreg., USA) operating at 200 keV.
Structural and phase characterization of the samples from all groups were undertaken by transmission electron microscopy imaging and diffraction analysis. This is because x-ray diffraction characterization requires large enough volume with 10s of lam mass thickness and larger spatial sampling, 100s of μms or larger areas. Since the mineralized layer is thin, a few μms in all other group samples to 10 μm or so in group 6 samples using the peptide, TEM has been used to provide the most critical data, diffraction and phase identification. The TEM samples were prepared by gently shaving fragments off the surface of tooth specimens onto carbon-coated TEM grid to prepare and ensure electron transparent sections. All of the TEM data is included in FIG. 13 below for completeness (while only 1st, 4th and 6th columns of data were presented in FIG. 11).

“Also recorded” adds a separate entry of the source.

As to “SYENSHSQAINVDRT [shADP5, 15-amino acid long amelogenin-derived peptide, shortened human ADP5]”, the “whiteness of the tooth enamel” value in assay [1] was “improved with each round of remineralization”. Further, the “tooth color compared with control” value in assay [2] was “lighter in color than the control”; in assay [3] (tea-stained human tooth quarter, peptide 10 min 37° C., then CaCl2/KH2PO4 16 hours), “lighter in color than the left quarter (control)”. Moreover, in assay [3] (ImageJ line profile, after staining and remineralization), the “Mean Pixel Intensity (MPI) compared with original and stained tooth” value was “higher MPI than the original tooth and the tooth after staining”. Moreover, the “structure of mineral found by TEM imaging and diffraction” value in assay [4] was “large particles (in the shown projection) of HAp; also recorded: HAp crystallites with aligned organization”.
